Experiments:
[1] = target: Beta-1 adrenergic receptor (Homo sapiens, UniProt P08588); assay type: functional, cell-based
[2] = target: Beta-2 adrenergic receptor (Homo sapiens, UniProt P07550); assay type: functional, cell-based
Cannabinoid receptor 1 [3] = target: T1, Cannabinoid receptor 1 (Homo sapiens, UniProt P21554); assay type: functional, cell-based
Cannabinoid receptor 1 [4] = target: T1, Cannabinoid receptor 1; assay type: functional, cell-based; remark: listed apart in the source
Endothelin-1 receptor = target: T2, Endothelin-1 receptor (Homo sapiens, UniProt P25101)
T2 sequence (P25101 whole entry): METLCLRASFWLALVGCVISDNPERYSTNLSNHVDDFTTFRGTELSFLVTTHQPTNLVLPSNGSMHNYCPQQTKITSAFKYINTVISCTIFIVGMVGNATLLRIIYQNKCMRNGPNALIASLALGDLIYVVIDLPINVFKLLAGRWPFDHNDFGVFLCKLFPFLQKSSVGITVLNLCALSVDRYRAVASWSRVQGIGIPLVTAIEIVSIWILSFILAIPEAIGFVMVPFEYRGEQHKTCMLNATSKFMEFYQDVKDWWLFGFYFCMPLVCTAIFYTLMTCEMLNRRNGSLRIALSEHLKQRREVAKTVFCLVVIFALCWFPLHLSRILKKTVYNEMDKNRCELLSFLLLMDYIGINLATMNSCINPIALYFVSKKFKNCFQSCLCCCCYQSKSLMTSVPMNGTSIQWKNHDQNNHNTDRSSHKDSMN

[5] = target: T3, 5-hydroxytryptamine receptor 2A (Homo sapiens, UniProt P28223); assay type: functional, cell-based
T3 sequence (P28223 whole entry): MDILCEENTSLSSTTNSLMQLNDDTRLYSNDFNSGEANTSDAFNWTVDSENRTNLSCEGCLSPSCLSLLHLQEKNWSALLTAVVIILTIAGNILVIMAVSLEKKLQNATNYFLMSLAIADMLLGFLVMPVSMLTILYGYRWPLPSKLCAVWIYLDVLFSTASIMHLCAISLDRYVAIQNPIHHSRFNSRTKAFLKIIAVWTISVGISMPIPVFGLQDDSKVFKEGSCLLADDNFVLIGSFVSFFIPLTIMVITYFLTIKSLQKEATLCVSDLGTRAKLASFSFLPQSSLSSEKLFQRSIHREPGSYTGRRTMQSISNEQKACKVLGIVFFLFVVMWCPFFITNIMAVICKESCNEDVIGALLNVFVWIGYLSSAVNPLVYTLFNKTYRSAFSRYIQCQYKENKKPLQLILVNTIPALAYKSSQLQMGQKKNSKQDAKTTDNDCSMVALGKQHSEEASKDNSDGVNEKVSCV

[6] = target: T3, 5-hydroxytryptamine receptor 2A; assay type: functional, cell-based; remark: listed apart in the source
Androgen receptor [7] = target: T4, Androgen receptor (Rattus norvegicus, UniProt P15207); assay type: functional
T4 sequence (P15207 whole entry): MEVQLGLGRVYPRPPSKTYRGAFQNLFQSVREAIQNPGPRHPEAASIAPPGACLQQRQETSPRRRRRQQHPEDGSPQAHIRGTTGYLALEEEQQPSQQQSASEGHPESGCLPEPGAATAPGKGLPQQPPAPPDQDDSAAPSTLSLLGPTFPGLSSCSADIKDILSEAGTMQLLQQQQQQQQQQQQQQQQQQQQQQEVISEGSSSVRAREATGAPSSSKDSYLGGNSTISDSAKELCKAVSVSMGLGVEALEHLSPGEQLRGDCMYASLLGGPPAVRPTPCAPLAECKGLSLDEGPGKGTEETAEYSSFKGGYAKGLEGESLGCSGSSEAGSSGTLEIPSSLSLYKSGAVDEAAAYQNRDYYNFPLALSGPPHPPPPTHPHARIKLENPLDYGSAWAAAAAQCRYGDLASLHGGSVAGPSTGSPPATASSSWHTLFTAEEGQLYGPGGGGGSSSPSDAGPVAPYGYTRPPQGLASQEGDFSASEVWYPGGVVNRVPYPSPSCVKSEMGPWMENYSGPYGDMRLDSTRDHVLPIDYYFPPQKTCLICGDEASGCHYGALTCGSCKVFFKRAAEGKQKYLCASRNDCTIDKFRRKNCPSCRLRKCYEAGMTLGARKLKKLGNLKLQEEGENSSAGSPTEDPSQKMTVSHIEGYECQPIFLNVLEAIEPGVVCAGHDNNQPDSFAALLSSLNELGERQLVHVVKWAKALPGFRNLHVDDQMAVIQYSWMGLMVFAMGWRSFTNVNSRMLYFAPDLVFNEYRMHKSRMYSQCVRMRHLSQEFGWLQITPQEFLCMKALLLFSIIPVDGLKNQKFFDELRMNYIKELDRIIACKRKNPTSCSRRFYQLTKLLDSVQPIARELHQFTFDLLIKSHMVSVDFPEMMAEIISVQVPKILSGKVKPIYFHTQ

Androgen receptor [8] = target: T4, Androgen receptor; assay type: functional; remark: listed apart in the source
[9] = target: T5, 5-hydroxytryptamine receptor 1A (Homo sapiens, UniProt P08908); assay type: functional, cell-based
T5 sequence (P08908 whole entry): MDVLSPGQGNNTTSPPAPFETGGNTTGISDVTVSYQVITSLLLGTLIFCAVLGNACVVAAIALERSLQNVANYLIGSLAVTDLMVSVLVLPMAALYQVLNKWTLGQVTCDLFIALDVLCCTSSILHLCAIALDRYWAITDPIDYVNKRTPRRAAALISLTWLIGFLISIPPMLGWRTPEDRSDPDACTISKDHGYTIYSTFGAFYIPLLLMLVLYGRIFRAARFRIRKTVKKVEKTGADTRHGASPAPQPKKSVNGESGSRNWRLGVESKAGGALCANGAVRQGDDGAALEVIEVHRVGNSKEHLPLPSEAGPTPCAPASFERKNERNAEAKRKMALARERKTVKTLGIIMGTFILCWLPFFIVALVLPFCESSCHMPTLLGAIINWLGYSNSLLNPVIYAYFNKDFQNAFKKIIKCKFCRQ

[10] = target: T6, Alpha-1A adrenergic receptor (Homo sapiens, UniProt P35348)
T6 sequence (P35348 whole entry): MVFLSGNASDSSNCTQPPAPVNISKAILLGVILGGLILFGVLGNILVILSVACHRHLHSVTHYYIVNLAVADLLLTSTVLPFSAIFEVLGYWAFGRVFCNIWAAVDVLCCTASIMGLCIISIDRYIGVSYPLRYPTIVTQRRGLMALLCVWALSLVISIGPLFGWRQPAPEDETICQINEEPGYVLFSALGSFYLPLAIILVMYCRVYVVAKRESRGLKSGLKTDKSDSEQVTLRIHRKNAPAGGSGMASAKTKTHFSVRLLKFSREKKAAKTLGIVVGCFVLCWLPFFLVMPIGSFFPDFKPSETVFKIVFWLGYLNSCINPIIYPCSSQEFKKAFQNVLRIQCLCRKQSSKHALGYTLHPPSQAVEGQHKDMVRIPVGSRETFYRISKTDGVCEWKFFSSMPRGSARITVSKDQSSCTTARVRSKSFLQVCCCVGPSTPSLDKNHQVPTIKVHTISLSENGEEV

Cannabinoid receptor 1 [11] = target: T1, Cannabinoid receptor 1
[12] = target: T5, 5-hydroxytryptamine receptor 1A
Also: assay procedure not described here.

Sequence of Beta-1 adrenergic receptor (P08588 whole entry): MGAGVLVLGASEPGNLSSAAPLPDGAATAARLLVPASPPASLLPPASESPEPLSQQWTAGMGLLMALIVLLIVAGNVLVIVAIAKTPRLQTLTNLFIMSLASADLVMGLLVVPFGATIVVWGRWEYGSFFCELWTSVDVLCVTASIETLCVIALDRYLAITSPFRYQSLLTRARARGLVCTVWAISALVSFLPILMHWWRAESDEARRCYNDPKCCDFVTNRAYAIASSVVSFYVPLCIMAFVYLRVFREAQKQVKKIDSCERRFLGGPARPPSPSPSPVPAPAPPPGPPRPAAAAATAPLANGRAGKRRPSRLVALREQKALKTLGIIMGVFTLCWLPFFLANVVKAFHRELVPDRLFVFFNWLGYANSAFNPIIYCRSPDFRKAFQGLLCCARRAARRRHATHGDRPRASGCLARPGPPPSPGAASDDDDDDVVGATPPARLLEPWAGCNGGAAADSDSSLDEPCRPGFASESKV
Sequence of Beta-2 adrenergic receptor (P07550 whole entry): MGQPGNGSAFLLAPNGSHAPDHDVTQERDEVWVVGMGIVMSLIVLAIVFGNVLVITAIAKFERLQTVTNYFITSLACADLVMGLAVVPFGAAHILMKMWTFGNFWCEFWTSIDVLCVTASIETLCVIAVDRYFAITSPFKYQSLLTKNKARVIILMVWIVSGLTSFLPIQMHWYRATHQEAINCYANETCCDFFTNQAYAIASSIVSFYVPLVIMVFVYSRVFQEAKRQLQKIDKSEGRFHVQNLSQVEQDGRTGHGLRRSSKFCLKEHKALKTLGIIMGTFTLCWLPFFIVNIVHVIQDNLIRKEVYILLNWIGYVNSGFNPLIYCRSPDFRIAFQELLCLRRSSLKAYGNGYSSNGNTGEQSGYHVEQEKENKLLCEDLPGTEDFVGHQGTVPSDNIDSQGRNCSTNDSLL
T1 sequence (P21554 whole entry): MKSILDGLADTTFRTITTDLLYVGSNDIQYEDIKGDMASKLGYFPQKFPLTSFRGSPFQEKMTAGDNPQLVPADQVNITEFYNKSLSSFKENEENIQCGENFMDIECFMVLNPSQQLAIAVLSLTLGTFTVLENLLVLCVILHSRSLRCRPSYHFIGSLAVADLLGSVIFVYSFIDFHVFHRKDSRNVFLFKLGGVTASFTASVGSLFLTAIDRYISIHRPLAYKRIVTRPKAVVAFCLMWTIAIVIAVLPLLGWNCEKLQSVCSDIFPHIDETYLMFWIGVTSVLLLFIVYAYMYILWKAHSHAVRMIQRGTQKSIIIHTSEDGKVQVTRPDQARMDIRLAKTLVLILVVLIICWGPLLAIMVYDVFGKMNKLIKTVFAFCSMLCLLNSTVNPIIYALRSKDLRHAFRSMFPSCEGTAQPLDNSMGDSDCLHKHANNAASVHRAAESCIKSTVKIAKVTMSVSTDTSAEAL

Row | SMILES | AC50 [1] [µM] | AC50 [2] [µM] | AC50 (Cannabinoid receptor 1 [3]) [µM] | AC50 (Cannabinoid receptor 1 [4]) [µM] | AC50 (Endothelin-1 receptor) [µM] | AC50 [5] [µM] | AC50 [6] [µM] | AC50 (Androgen receptor [7]) [µM] | AC50 (Androgen receptor [8]) [µM] | AC50 [9] [µM] | AC50 [10] [µM] | AC50 (Cannabinoid receptor 1 [11]) [µM] | AC50 [12] [µM]
1 | O=C(O)c1ccccc1Nc1cc(Cl)ccc1C(=O)O [LOBENZARIT] | > 30 | > 30 | > 30 | > 30 | > 30 | > 30 | > 30 | – | – | – | – | – | –
2 | C#CCOc1ccc(N)cc1C(=O)NCCCC [PARSALMIDE] | – | – | > 30 | > 30 | > 30 | > 30 | 30 | > 30 | > 30 | > 30 | – | – | –
3 | COc1ccc(-c2noc(CC(=O)O)c2-c2ccc(OC)cc2)cc1 [MOFEZOLAC] | > 30 | > 30 | > 30 | > 30 | > 30 | > 30 | > 30 | > 30 | > 30 | – | – | – | –
4 | Oc1ccc2c(c1)[C@@]13CCCC[C@@]1(O)[C@@H](C2)N(CC1CCC1)CC3 [BUTORPHANOL] | – | > 30 | > 30 | > 30 | > 30 | > 30 | > 30 | > 30 | > 30 | > 30 | – | – | –
5 | COc1ccc2nc3cc(Cl)ccc3c(Nc3cc(CN4CCCC4)c(O)c(CN4CCCC4)c3)c2n1 [PYRONARIDINE] | – | – | > 30 | > 30 | > 30 | > 30 | > 30 | > 30 | > 10 | – | – | – | –
6 | NC1CCN(c2nc3c(cc2F)c(=O)c(C(=O)O)cn3-c2ccc(F)cc2F)C1 (stereo unspecified) [TOSUFLOXACIN] | – | – | > 30 | > 30 | > 30 | – | – | > 30 | > 30 | – | – | – | –
7 | CC(=O)O[C@H](CC(=O)[O-])C[N+](C)(C)C [ACETYLCARNITINE] | > 30 | > 30 | > 30 | > 30 | > 30 | > 30 | > 30 | – | – | – | – | – | –
8 | C=C1/C(=C\C=C2/CCC[C@]3(C)[C@@H]([C@H](C)/C=C/[C@@H](O)C4CC4)CC[C@@H]23)C[C@@H](O)C[C@@H]1O [CALCIPOTRIENE] | – | – | – | – | > 30 | > 30 | > 30 | > 30 | 28 | – | 29 | > 30 | > 30
9 | O=C(O)CCNC(=O)c1ccccc1 [BETAMIPRON] | > 30 | > 30 | > 30 | > 30 | > 30 | – | – | – | – | > 30 | – | – | –
10 | CCC(COC(=O)c1cc(OC)c(OC)c(OC)c1)(c1ccccc1)N(C)C (stereo unspecified) [TRIMEBUTINE] | > 30 | > 30 | > 30 | > 30 | > 30 | > 30 | > 30 | – | – | > 30 | – | – | –
11 | CCCCCCCCCCCCCCCCCCCCCC(=O)Nc1ccn([C@@H]2O[C@H](CO)[C@@H](O)[C@@H]2O)c(=O)n1 [ENOCITABINE] | – | – | > 30 | > 30 | > 30 | > 30 | > 30 | > 30 | > 30 | – | – | – | –
12 | CCN(CC)C(=O)Nc1ccc(OCC(O)CNC(C)(C)C)c(C(C)=O)c1 (stereo unspecified) [CELIPROLOL] | > 30 | > 30 | > 30 | > 30 | > 30 | > 30 | > 30 | > 30 | > 30 | > 30 | – | – | –
